Reference: patent publication US11065202B2, “Multi-component nanochains” (CASE WESTERN RESERVE UNIVERSITY, priority 2011, dated 2021)

Key:
[1] = tested on: 13762 MAT B III tumor model; assay: Tumor growth and survival study; format: in vivo, rats; conditions: single treatment 0.5 mg/kg DOX, without RF
From the text: The rat tumor model was established by a subcutaneous injection of 1×10^6 13762 MAT B III cells into the right flank of female Fisher rats. Mouse tumors were generated orthotopically in female BALB/c mice by injection of 0.5×10^6 4 T1 cells into the inguinalmammary fat pad. Once the appropriate tumor size was established (diameter ˜0.5 cm), the animals were used in the in vivo studies. Each cell line required different lag times to produce a tumor lesion of about 0.5 cm in size (5 and 8 days for the MAT B III and 4T1 model, respectively). Based on our prior experience, we chose this tumor size as the starting point of the animal studies, since the primary tumor mass is sufficiently large to present angiogenic, necrotic and invasive areas, and therefore may be more informative and relevant to human disease.
Once the appropriate tumor sizes were established (diameter ˜0.5 cm), the rat tumor model was IV injected with DOX-NC at a dose of 0.5 mg/kg DOX. After 24 hours from injection, animals were exposed to the RF field operated as described previously. Following the same dose and schedule, control groups included animals treated with DOX-NC (but no RF), only RF, liposomal DOX, liposomal DOX with RF, free DOX, and saline. […] The tumor growth was monitored every day using caliper measurements. […] Time of death was determined to be the following day.

MAT B III tumors = assay: Histological evaluation of apoptosis (TUNEL), rat model; format: in vivo, rats; conditions: 5 mg/kg, IV
Method: The rat MAT B III and the mouse 4T1 models were used in the histological studies. Animals treated with DOX-NC were exposed to the RF field 24 hours post-injection. After 24 hours from the application of the RF field, the animals were anesthetized with an IP injection of ketamine/xylazine and transcardially perfused with heparinized PBS followed by 4% paraformaldehyde in PBS. Controls included animals treated with DOX-NC (no RF), 35-nm liposomal DOX (with RF), 100-nm liposomal DOX (with RF), free DOX, RF alone and saline. The tumors were explanted and post-fixed overnight in 4% paraformaldehyde in PBS. The fixed tumors were soaked in 30% sucrose (w/v) in PBS at 4° C. for cryosectioning. Serial sections of 12 μm thickness were collected using a cryostat (Leica CM 300).
To visualize the tumor microvasculature, the tissue slices were immunohistochemically stained for the specific endothelial antigen CD31 (BD Biosciences, Pharmingen). The tissues were also stained with the nuclear stain DAPI. […] Direct fluorescence (red) imaging of tumor sections were performed for imaging DOX. Apoptosis was detected using a TUNEL assay (Promega). […] The total number of cells was counted based on the nuclear stain (DAPI) in multiple histological sections per tumor (minimum 20), whereas apoptotic cells were quantified based on TUNEL-stained nuclei.

## COc1cccc2c1C(=O)c1c(O)c3c(c(O)c1C2=O)C[C@@](O)(C(=O)CO)C[C@@H]3O[C@H]1C[C@H](N)[C@H](O)[C@H](C)O1 [free DOX, doxorubicin]
[1]
  tumor growth: failed to produce any therapeutic benefits
MAT B III tumors
  apoptotic cells in tumor (visual inspection): substantial number of apoptotic cells
